Measured values reported in PMC11257039, “VCP activator reverses nuclear proteostasis defects and enhances TDP-43 aggregate clearance in multisystem proteinopathy models” (The Journal of Clinical Investigation, 2024).
Several values for one entry are separate records, joined by “and”; a condition that tells them apart may be missing. Equal values may be shown once.

Columns and labels:
recombinant WT VCP = target: T1, recombinant WT VCP (Mus musculus, UniProt Q01853); test: Kinase-Glo ATPase assay, recombinant WT VCP; type: biochemical; conditions: for ATP consumed: WT VCP no UN
T1 construct: in the full-length recombinant VCP; His (N); made in house; host or cells: Escherichia coli BL21-CodonPlus (DE3)-RIL
T1 sequence (Q01853 whole entry): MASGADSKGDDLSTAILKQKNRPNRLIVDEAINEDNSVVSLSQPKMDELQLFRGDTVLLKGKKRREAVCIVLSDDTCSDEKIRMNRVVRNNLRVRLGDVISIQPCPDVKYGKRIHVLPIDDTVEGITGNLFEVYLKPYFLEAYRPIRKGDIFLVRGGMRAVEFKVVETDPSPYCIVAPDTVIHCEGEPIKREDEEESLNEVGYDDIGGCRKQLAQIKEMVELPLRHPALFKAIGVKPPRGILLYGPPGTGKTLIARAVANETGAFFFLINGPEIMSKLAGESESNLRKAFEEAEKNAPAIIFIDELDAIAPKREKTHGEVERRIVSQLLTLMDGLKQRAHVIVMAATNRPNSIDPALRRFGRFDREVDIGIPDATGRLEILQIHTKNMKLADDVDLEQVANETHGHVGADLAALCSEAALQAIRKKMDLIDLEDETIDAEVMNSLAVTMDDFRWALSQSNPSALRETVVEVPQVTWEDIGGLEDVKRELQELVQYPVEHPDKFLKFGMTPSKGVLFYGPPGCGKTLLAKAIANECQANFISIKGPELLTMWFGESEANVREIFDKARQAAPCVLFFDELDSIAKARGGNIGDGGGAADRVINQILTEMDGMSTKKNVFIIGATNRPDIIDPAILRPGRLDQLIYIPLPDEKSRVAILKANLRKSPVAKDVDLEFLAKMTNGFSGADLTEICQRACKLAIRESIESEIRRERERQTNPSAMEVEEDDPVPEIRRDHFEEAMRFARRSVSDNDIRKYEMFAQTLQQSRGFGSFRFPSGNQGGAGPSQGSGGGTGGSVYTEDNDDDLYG
Procedure, shortened: (§1)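 Mouse VCP (50 nM), alone or with 50 nM UFD1/NPLOC4, was incubated 1 h at 25 °C with 62.5 μM ATP and a range of compound concentrations in HEPES pH 7.5, 100 mM NaCl, 10 mM MgCl2, 2% DMSO. Remaining ATP was read by Kinase-Glo luminescence. Dose data were fit to a 3-parameter curve; ATP-varied data were fit to Michaelis-Menten.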

WT VCP + Ufd1/Nploc4 = target: T2, WT VCP + Ufd1/Nploc4 (Mus musculus, UniProt Q01853); test: Kinase-Glo ATPase assay, WT VCP with UFD1/NPLOC4 (UN); type: biochemical; conditions: for ATP consumed: WT VCP with UN
T2 construct: in the full-length recombinant VCP; His (N); made in house; host or cells: E. coli (VCP: BL21-CodonPlus (DE3)-RIL; UFD1 and NPLOC4: E. coli (DE3), purified by the MD Anderson core)
T2 sequence (Q01853 whole entry): as above
T2 sequence (Q92890 whole entry partner): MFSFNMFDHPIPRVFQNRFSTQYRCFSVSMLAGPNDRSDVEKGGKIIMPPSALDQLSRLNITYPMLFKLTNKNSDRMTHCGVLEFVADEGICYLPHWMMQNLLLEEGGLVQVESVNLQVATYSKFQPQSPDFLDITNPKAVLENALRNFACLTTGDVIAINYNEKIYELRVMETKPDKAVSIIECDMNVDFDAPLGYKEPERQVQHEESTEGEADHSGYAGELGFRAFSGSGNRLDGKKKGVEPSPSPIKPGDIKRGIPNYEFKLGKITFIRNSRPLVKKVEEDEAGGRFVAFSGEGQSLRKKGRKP
T2 sequence (Q8TAT6 whole entry partner): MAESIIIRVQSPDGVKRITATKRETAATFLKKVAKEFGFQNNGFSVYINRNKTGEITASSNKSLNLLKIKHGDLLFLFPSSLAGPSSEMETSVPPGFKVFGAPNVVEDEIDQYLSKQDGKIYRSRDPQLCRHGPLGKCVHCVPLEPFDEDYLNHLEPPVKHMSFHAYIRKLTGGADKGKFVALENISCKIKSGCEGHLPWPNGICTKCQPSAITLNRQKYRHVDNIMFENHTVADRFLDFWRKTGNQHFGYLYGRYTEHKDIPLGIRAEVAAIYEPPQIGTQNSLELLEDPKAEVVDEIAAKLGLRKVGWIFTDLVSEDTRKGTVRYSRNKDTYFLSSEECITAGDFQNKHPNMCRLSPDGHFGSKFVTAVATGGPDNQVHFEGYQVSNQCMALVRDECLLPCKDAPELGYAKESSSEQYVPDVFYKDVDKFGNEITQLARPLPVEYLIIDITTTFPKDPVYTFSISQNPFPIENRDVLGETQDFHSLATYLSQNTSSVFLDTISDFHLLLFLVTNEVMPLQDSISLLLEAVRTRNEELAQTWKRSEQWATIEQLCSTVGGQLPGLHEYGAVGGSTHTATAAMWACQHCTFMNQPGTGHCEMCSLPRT
Procedure, shortened: as §1

[1] = system: WT HeLa cells expressing GFP-TDP-4FL; test: Flow cytometry of GFP-TDP-4FL integrated fluorescence, WT HeLa; type: cell-based; conditions: for Integrated Fluorescence WT (Normalized to CHX): replicate values
Procedure, shortened: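 Trypsinised cells resuspended in colorless DMEM with 2% FBS and analysed by flow cytometry. Integrated fluorescence taken as percent GFP-positive cells multiplied by GFP median fluorescence.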

[2] = system: WT HeLa cells expressing TDP-4FL; test: Immunofluorescence of TDP-4FL inclusion morphology, WT HeLa; type: cell-based; conditions: MG132 17 h, then CHX with 5 μM UP109 4 h
Description: HeLa Cells were plated onto glass coverslips and transfected with TDP-4FL using Fugene HD for 24 hours. Cells were fixed with 4% paraformaldehyde (Electron Microscopy Sciences), permeabilized with 0.1% Triton-X (Thermo Fisher Scientific), and blocked with 2% FBS DPBS. Primary antibodies were diluted in 2% FBS DPBS. Cells were stained with 300 nM DAPI, and coverslips were mounted onto glass slides using ProLong Glass Antifade Mountant (Thermo Fisher Scientific). Confocal images were obtained using a Leica TCS SPE laser scanning confocal microscope.
(A) High power magnification immunofluorescence confocal images of HeLa cells expressing TDP-4FL stained for myc-TDP (green) Scale bar, 5 µm. […]
(C) Representative confocal microscopy immunofluorescence confocal images of HeLa cells […]
yellow represent cells that were categorized as anisosome morphology. Nuclei outline in white represent cells that were categorized as aggregate morphology. Cells with approximately more than 50% anisosome inclusions were categorized as anisosome morphology whereas cells with approximately more than 50% aggregate-like inclusions were categorized as aggregate morphology. Binucleate cells were excluded from the total counts. Scale bar, 10 µm.
(1 picture or pasted object on this page, not shown here)

luciferase = test: Luciferase counter assay: Kinase-Glo with 62.5 μM ATP without recombinant VCP; type: biochemical; conditions: for measured ATP consumed (nmol) without VCP: replicate values
Procedure, shortened: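 Counter-screen with no recombinant VCP: 62.5 μM ATP and rising compound concentrations in ATPase buffer (25 mM HEPES pH 7.5, 100 mM NaCl, 10 mM MgCl2, 2% DMSO), 1 h at 25°C. Remaining ATP was read as Kinase-Glo luminescence after 20 min at room temperature; n=3, linear mixed effects model.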

A232E VCP = target: T3, A232E VCP (Mus musculus, UniProt Q01853, A232E); test: MESG-PNP ATPase assay, recombinant A232E VCP; type: biochemical
T3 construct: in the full-length recombinant VCP; His (N); made in house; host or cells: Escherichia coli BL21-CodonPlus (DE3)-RIL
T3 sequence (Q01853 whole entry A232E): as the sequence (Q01853 whole entry) above, with A232E counted along it
Procedure, shortened: (§2)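 Phosphate release (MESG-PNP, A360) from 50 nM recombinant mouse VCP mutant, with 25 μM compound versus 2% DMSO, at 1mM ATP. Read >15 min at 25°C, quantified against a phosphate standard curve; initial velocity from linear fit of the linear portion.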

R155H VCP = target: T4, R155H VCP (Mus musculus, UniProt Q01853, R155H); test: MESG-PNP ATPase assay, recombinant R155H VCP; type: biochemical
T4 construct: in the full-length recombinant VCP; His (N); made in house; host or cells: Escherichia coli BL21-CodonPlus (DE3)-RIL
T4 sequence (Q01853 whole entry R155H): as the sequence (Q01853 whole entry) above, with R155H counted along it
Procedure, shortened: as §2

R159H VCP = target: T5, R159H VCP (Mus musculus, UniProt Q01853, R159H); test: MESG-PNP ATPase assay, recombinant R159H VCP; type: biochemical
T5 construct: in the full-length recombinant VCP; His (N); made in house; host or cells: Escherichia coli BL21-CodonPlus (DE3)-RIL
T5 sequence (Q01853 whole entry R159H): as the sequence (Q01853 whole entry) above, with R159H counted along it
Procedure, shortened: as §2

[3] = 25 μM compound, 1 mM ATP, 50 nM VCP

COCCNC(=O)NC(=O)COC(=O)c1cc([N+](=O)[O-])ccc1Sc1nc(C)cs1 [UP109]
EC50 (recombinant WT VCP; EC50 (μM) (95% CI), WT VCP without UN, 50 nM VCP, 62.5 μM ATP, 2% DMSO): 24.7 µM | ATP consumed (recombinant WT VCP; 1.56 μM compound): 0.864 nmol and 1.057 nmol and 1.000 nmol | ATP consumed (recombinant WT VCP; 3.13 μM compound): 1.129 nmol and 1.166 nmol and 1.237 nmol | ATP consumed (recombinant WT VCP; 6.25 μM compound): 1.129 nmol and 1.374 nmol and 1.469 nmol | ATP consumed (recombinant WT VCP; 12.5 μM compound): 1.453 nmol and 1.583 nmol and 1.518 nmol | ATP consumed (recombinant WT VCP; 25 μM compound): 1.644 nmol and 1.860 nmol and 1.582 nmol | ATP consumed (recombinant WT VCP; 50 μM compound): 1.793 nmol and 1.914 nmol and 2.036 nmol | ATP consumed (recombinant WT VCP; 100 μM compound): 1.926 nmol and 2.030 nmol and 2.160 nmol | ATP consumed (recombinant WT VCP; 200 μM compound): 2.051 nmol and 2.217 nmol and 2.241 nmol | recombinant WT VCP ATPase activity (recombinant WT VCP; in vitro validation of 106 screen hits): significantly increased | increase of VCP activity (recombinant WT VCP; maximum, WT VCP without UN): 97% | change in EC50 with UN compared to without UN (WT VCP + Ufd1/Nploc4): non-significant decreases | change in maximum percent activity with UN compared to without UN (WT VCP + Ufd1/Nploc4): significantly decreased | EC50 (WT VCP + Ufd1/Nploc4; WT VCP + Ufd1/Nploc4, 1:1 molar ratio): 13.4 µM | ATP consumed (WT VCP + Ufd1/Nploc4; 1.56 μM compound): 1.207 nmol and 1.374 nmol and 1.037 nmol | ATP consumed (WT VCP + Ufd1/Nploc4; 3.13 μM compound): 1.252 nmol and 1.505 nmol and 1.198 nmol | ATP consumed (WT VCP + Ufd1/Nploc4; 6.25 μM compound): 1.448 nmol and 1.727 nmol and 1.392 nmol | ATP consumed (WT VCP + Ufd1/Nploc4; 12.5 μM compound): 1.655 nmol and 1.932 nmol and 1.557 nmol | ATP consumed (WT VCP + Ufd1/Nploc4; 25 μM compound): 1.893 nmol and 2.050 nmol and 1.818 nmol | ATP consumed (WT VCP + Ufd1/Nploc4; 50 μM compound): 2.078 nmol and 2.217 nmol and 1.927 nmol | ATP consumed (WT VCP + Ufd1/Nploc4; 100 μM compound): 2.107 nmol and 2.355 nmol and 2.018 nmol | ATP consumed (WT VCP + Ufd1/Nploc4; 200 μM compound): 1.978 nmol and 2.301 nmol and 2.081 nmol | Integrated Fluorescence WT (Normalized to CHX) ([1]; 5μM compound with CHX): 1.011 and 0.958 and 1.026 and 0.960 and 0.926 and 0.822 and 0.883 and 0.671 | Integrated Fluorescence WT (Normalized to CHX) ([1]; 20μM compound with CHX): 0.950 and 0.938 and 0.974 and 0.870 and 0.844 and 0.840 and 0.850 and 0.749 | clearance of GFP-TDP-4FL aggregates (integrated fluorescence) ([1]; MG132, then CHX with 5 or 20 μM activator): enhances clearance of TDP-4FL inclusions | TDP-4FL aggregate morphology [2]: appeared to be smaller and in some cases revert to small anisosomes | luciferase activity (measured ATP without VCP) (luciferase; 62.5 μM ATP, increasing concentrations of compound): did not inhibit luciferase activity | measured ATP consumed (nmol) without VCP (luciferase; compound 6.25 μM): 3.224 nmol and 3.481 nmol and 3.557 nmol and 3.618 nmol and 3.348 nmol and 3.306 nmol and 3.280 nmol and 3.059 nmol and 3.211 nmol and 3.590 nmol and 3.249 nmol and 3.229 nmol | measured ATP consumed (nmol) without VCP (luciferase; compound 12.5 μM): 3.275 nmol and 3.593 nmol and 3.611 nmol and 3.469 nmol and 3.221 nmol and 3.387 nmol and 3.414 nmol and 3.086 nmol and 3.141 nmol and 3.174 nmol and 3.231 nmol and 3.422 nmol | measured ATP consumed (nmol) without VCP (luciferase; compound 25 μM): 3.285 nmol and 3.476 nmol and 3.450 nmol and 3.355 nmol and 3.220 nmol and 3.354 nmol and 3.314 nmol and 3.030 nmol and 3.217 nmol and 3.388 nmol and 3.578 nmol and 3.396 nmol | measured ATP consumed (nmol) without VCP (luciferase; compound 50 μM): 3.335 nmol and 3.348 nmol and 3.307 nmol and 3.386 nmol and 3.228 nmol and 2.949 nmol and 3.054 nmol and 3.211 nmol and 3.367 nmol and 3.287 nmol and 3.322 nmol | measured ATP consumed (nmol) without VCP (luciferase; compound 100 μM): 3.258 nmol and 3.303 nmol and 3.325 nmol and 3.212 nmol and 3.287 nmol and 3.191 nmol and 3.396 nmol and 3.257 nmol and 3.381 nmol and 3.296 nmol | measured ATP consumed (nmol) without VCP (luciferase; compound 200 μM): 3.338 nmol and 3.532 nmol and 3.360 nmol and 3.185 nmol and 3.242 nmol and 2.772 nmol and 3.166 nmol and 3.261 nmol and 3.507 nmol and 3.171 nmol and 3.672 nmol | ATPase activity of A232E VCP (A232E VCP; [3]): increases ATPase activity | ATPase activity, nmol Pi / nmol VCP / s (A232E VCP; VCP Mutation A232E, replicate values): 1.176 nmol Pi / nmol VCP / s and 1.282 nmol Pi / nmol VCP / s and 1.456 nmol Pi / nmol VCP / s | ATPase activity of R155H VCP (R155H VCP; [3]): increases ATPase activity | ATPase activity, nmol Pi / nmol VCP / s (R155H VCP; VCP Mutation R155H, replicate values): 1.058 nmol Pi / nmol VCP / s and 1.110 nmol Pi / nmol VCP / s and 1.179 nmol Pi / nmol VCP / s | ATPase activity of R159H VCP (R159H VCP; [3]): increases ATPase activity | ATPase activity, nmol Pi / nmol VCP / s (R159H VCP; VCP Mutation R159H, replicate values): 1.124 nmol Pi / nmol VCP / s and 1.212 nmol Pi / nmol VCP / s and 1.056 nmol Pi / nmol VCP / s
